Experimental data: publication PMC6704710, “Preclinical evaluation of 3D185, a novel potent inhibitor of FGFR1/2/3 and CSF-1R, in FGFR-dependent and macrophage-dominant cancer models” (Journal of Experimental & Clinical Cancer Research : CR, 2019)

What was measured:
Experiment in all cases: Eurofins kinase panel
Format in all cases: biochemical
Details in all cases: read-out: Inhibition rate (%)
IR(h) = target: T1, IR(h) (Homo sapiens, UniProt P06213)
T1 construct: purchased Eurofins (KinaseProfiler)
T1 sequence (P06213 28-1382): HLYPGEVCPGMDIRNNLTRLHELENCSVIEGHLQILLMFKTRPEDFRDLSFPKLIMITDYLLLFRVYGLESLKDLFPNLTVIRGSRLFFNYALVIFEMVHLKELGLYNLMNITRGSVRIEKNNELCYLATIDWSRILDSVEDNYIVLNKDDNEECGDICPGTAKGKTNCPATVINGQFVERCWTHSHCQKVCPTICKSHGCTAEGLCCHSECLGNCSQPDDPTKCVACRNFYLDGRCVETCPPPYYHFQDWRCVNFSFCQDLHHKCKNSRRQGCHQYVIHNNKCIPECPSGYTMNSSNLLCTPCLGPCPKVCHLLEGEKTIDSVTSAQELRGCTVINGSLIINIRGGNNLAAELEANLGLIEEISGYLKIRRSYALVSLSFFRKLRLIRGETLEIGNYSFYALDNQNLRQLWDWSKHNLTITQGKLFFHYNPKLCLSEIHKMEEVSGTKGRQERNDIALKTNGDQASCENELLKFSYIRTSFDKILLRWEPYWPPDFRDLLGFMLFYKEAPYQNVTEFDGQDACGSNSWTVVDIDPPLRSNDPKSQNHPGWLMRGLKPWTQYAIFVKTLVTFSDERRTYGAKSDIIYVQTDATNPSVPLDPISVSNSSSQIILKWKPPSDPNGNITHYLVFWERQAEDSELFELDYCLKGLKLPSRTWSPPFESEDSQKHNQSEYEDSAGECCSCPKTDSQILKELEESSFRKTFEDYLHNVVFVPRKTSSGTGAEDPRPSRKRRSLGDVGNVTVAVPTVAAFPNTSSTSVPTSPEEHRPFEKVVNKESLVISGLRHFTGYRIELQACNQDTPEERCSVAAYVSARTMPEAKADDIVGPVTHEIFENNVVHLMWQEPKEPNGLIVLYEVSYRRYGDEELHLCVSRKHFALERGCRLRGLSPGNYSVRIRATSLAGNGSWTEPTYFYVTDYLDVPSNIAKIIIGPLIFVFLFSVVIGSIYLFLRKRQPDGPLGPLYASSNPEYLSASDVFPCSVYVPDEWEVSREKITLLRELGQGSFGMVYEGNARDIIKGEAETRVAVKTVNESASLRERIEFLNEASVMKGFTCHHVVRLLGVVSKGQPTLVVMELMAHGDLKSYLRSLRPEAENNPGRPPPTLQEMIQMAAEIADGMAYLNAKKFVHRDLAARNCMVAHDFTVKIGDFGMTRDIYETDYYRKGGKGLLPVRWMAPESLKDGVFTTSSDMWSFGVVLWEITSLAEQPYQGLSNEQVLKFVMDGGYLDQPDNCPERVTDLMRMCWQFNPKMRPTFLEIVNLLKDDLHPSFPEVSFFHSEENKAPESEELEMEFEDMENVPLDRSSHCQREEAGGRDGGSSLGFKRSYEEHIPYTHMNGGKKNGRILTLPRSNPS

CDK5/p35(h) = target: T2, CDK5/p35(h) (Homo sapiens, UniProt Q00535)
T2 construct: purchased Eurofins (KinaseProfiler)
T2 sequence (Q00535 whole entry): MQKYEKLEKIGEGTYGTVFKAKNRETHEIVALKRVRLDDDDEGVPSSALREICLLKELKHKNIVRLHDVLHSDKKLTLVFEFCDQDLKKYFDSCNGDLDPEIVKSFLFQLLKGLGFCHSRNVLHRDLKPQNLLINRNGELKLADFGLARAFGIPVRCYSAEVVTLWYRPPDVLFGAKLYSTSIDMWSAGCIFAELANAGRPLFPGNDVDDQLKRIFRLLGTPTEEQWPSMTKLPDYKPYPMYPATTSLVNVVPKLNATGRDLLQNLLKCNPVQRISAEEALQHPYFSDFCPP
T2 sequence (Q15078 whole entry partner): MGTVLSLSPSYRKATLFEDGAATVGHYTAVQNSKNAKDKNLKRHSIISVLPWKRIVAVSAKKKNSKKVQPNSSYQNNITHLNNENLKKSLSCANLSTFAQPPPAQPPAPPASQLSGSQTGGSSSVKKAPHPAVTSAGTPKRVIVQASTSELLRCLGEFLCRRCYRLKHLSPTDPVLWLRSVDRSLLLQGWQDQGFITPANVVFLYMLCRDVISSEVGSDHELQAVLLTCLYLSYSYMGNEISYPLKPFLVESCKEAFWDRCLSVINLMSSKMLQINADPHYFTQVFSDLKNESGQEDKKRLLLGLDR

Fgr(h) = target: T3, Fgr(h) (Homo sapiens, UniProt P09769)
T3 construct: purchased Eurofins (KinaseProfiler)
T3 sequence (P09769 whole entry): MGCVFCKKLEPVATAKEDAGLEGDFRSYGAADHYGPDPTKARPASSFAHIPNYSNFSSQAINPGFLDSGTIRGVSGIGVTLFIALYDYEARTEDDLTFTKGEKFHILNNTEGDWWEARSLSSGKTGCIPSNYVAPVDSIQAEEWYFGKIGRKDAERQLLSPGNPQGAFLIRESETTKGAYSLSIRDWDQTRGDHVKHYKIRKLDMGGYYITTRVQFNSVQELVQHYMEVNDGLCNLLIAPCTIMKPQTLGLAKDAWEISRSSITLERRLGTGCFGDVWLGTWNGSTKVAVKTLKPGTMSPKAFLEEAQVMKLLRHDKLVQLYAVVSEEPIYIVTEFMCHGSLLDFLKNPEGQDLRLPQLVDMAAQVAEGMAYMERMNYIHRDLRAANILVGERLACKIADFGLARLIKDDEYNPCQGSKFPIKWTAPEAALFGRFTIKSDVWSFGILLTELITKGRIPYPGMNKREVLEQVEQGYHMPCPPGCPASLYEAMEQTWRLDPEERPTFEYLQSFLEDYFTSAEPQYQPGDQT

ZAK(h) = target: T4, ZAK(h) (Homo sapiens, UniProt Q9NYL2)
T4 construct: purchased Eurofins (KinaseProfiler)
T4 sequence (Q9NYL2 whole entry): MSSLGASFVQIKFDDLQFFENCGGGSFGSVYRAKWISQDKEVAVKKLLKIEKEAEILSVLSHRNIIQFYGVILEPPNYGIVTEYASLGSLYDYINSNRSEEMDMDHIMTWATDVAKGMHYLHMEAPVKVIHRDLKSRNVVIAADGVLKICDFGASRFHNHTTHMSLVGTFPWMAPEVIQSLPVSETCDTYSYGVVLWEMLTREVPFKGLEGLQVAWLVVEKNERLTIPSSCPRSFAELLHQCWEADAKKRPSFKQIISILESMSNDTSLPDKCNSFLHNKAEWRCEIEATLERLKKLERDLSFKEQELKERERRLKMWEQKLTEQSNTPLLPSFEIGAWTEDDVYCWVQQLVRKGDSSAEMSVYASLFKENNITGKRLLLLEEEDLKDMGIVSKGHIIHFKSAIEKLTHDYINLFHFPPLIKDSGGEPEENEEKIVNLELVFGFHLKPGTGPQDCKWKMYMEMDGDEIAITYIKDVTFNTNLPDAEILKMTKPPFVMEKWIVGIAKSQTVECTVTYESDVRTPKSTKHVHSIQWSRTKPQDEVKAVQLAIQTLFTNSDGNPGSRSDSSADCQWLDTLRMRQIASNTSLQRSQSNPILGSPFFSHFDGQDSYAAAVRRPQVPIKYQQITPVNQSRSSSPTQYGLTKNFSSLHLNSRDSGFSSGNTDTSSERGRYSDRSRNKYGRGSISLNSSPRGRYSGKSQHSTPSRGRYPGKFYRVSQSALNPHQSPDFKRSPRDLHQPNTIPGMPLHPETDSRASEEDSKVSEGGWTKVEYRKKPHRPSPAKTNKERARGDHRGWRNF

Flt3(h) = target: T5, Flt3(h) (Homo sapiens, UniProt P36888)
T5 construct: purchased Eurofins (KinaseProfiler)
T5 sequence (P36888 27-993): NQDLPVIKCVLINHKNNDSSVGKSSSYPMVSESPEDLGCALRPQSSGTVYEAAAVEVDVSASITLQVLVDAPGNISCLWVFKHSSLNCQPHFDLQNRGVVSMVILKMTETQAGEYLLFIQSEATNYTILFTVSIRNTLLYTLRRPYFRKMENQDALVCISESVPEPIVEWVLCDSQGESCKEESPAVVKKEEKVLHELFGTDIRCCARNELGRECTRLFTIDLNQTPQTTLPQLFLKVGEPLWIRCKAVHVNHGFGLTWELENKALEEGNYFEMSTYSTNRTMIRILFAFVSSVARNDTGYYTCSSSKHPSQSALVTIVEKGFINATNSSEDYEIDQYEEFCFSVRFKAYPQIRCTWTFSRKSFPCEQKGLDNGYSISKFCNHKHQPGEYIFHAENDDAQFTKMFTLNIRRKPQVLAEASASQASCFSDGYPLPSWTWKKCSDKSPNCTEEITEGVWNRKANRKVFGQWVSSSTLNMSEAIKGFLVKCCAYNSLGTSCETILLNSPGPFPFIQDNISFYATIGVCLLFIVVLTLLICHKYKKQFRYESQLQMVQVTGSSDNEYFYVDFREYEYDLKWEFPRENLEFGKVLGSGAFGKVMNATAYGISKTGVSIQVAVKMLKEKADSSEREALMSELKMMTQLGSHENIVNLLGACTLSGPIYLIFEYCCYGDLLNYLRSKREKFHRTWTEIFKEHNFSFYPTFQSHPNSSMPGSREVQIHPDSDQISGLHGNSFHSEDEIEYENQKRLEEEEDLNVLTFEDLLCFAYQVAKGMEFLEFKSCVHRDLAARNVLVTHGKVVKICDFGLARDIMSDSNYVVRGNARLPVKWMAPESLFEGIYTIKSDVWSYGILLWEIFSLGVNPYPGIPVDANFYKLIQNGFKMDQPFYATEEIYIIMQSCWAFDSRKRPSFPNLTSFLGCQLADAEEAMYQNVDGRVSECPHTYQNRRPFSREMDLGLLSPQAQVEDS

NEK3(h) = target: T6, NEK3(h) (Homo sapiens, UniProt P51956)
T6 construct: purchased Eurofins (KinaseProfiler)
T6 sequence (P51956 1-506): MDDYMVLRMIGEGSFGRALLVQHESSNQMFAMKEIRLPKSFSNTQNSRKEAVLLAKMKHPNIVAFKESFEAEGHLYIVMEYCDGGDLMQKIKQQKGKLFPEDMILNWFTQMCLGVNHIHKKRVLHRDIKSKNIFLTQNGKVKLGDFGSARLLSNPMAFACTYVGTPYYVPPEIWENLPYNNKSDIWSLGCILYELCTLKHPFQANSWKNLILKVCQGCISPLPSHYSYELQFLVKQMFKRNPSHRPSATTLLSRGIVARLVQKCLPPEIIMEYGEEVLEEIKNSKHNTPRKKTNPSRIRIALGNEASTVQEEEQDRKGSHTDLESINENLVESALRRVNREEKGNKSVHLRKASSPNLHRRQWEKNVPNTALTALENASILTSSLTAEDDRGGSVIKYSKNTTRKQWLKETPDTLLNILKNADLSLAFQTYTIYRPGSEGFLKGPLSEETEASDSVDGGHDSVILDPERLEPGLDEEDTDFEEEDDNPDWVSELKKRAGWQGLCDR

SAPK2b(h) = target: T7, SAPK2b(h) (Homo sapiens, UniProt Q15759)
T7 construct: purchased Eurofins (KinaseProfiler)
T7 sequence (Q15759 whole entry): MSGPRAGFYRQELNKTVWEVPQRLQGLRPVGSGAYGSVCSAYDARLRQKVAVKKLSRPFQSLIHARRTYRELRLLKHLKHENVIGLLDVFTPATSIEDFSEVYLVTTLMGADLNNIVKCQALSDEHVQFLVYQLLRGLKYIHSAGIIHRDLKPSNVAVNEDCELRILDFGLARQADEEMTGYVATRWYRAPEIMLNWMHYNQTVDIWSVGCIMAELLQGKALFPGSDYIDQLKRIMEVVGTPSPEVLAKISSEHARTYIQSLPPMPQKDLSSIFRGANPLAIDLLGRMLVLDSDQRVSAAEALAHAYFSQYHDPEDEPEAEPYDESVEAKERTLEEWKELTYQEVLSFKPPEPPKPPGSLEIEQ

mTOR(h) = target: T8, mTOR(h) (Homo sapiens, UniProt P42345)
T8 construct: purchased Eurofins (KinaseProfiler)

MST2(h) = target: T9, MST2(h) (Homo sapiens, UniProt Q13188)
T9 construct: purchased Eurofins (KinaseProfiler)
T9 sequence (Q13188 1-491): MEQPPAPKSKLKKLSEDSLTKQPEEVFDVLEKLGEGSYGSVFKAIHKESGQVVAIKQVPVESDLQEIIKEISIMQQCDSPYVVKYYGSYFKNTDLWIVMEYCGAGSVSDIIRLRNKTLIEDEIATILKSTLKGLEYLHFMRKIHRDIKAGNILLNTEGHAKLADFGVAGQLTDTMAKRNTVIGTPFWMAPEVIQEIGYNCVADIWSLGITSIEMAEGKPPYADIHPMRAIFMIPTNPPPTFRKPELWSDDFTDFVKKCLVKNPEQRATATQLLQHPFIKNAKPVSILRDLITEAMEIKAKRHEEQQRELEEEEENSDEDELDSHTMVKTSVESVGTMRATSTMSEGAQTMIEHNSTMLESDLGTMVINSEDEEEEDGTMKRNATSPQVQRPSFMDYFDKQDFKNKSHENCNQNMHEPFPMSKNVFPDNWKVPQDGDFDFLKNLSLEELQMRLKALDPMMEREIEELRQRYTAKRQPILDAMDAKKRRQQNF

Compound: COc1cc(OC)c(Cl)c(-c2ccc3c(NC(=O)c4ccc(N5CCNC(C)(C)C5)cc4)n[nH]c3n2)c1Cl [3D185]
- inhibition at 0.01 µM (IR(h); 10 nM): 16%
- inhibition at 0.1 µM (IR(h); 100 nM): 32%
- inhibition at 1 µM (IR(h); 1000 nM): 94%
- inhibition at 0.01 µM (CDK5/p35(h); 10 nM): 19%
- inhibition at 0.1 µM (CDK5/p35(h); 100 nM): 17%
- inhibition at 1 µM (CDK5/p35(h); 1000 nM): 12%
- inhibition at 0.01 µM (Fgr(h); 10 nM): 11%
- inhibition at 0.1 µM (Fgr(h); 100 nM): 44%
- inhibition at 1 µM (Fgr(h); 1000 nM): 89%
- inhibition at 0.01 µM (ZAK(h); 10 nM): 1%
- inhibition at 0.1 µM (ZAK(h); 100 nM): -2%
- inhibition at 1 µM (ZAK(h); 1000 nM): 8%
- inhibition at 0.01 µM (Flt3(h); 10 nM): 10%
- inhibition at 0.1 µM (Flt3(h); 100 nM): 17%
- inhibition at 1 µM (Flt3(h); 1000 nM): 27%
- inhibition at 0.01 µM (NEK3(h); 10 nM): 10%
- inhibition at 0.1 µM (NEK3(h); 100 nM): 13%
- inhibition at 1 µM (NEK3(h); 1000 nM): 5%
- inhibition at 0.01 µM (SAPK2b(h); 10 nM): 3%
- inhibition at 0.1 µM (SAPK2b(h); 100 nM): 14%
- inhibition at 1 µM (SAPK2b(h); 1000 nM): 20%
- inhibition at 0.01 µM (mTOR(h); 10 nM): -2%
- inhibition at 0.1 µM (mTOR(h); 100 nM): -2%
- inhibition at 1 µM (mTOR(h); 1000 nM): 4%
- inhibition at 0.01 µM (MST2(h); 10 nM): 16%
- inhibition at 0.1 µM (MST2(h); 100 nM): 41%
- inhibition at 1 µM (MST2(h); 1000 nM): 65%
